Data as given in patent US20220054485A1, “METHODS OF TREATING RIGHT VENTRICULAR FUNCTION IN PULMONARY HYPERTENSION” (REGENTS OF THE UNIVERSITY OF MINNESOTA, priority 2020, published 2022).
Entries after “also recorded” stand apart in the source; their conditions may differ. Where two headings read alike, the source gives them in different places.

Key:
MCT rats = conditions: cited from earlier work
H9c2 cardiomyocytes = test: Seahorse mitochondrial respiration in H9c2 cardiomyocytes; type: cell-based, rat; conditions: 20 μM paclitaxel overnight
Protocol: Cell culture and mitochondrial respiration measurements: H9c2 (ATCC CRL-1446) rat cardiomyocytes were maintained in Dulbecco's Modified Eagle's Medium (DMEM) (Thermo Scientific) supplemented with 10% fetal bovine serum (FBS) (Foundation, Gemini Bio-Products, West Sacramento, Calif.), 100 U/ml penicillin, and 100 μg/ml streptomycin (Invitrogen, Carlsbad, Calif.) at 37° C. with 5% CO2. Cells were passaged with Accutase (BioLegend, San Diego, Calif.). Differentiation was induced by changing to differentiation medium which had 2% horse serum (Equitech-Bio, Kerrville, Tex.), in place of FBS. Ten thousand cells were plated per Agilent Seahorse XFp dish pretreated with 0.1% gelatin (Sigma-Aldrich, St. Louis, Mo.). Five days after initial plating, cells were treated with differentiation media supplemented with 20 μM paclitaxel in DMSO (Sigma-Aldrich) overnight. The following day and one hour before the assay, cell media was changed to Seahorse DMEM assay media and supplemented with 5 mM glucose, 4 mM glutamine, and 1 mM pyruvate (Agilent, Santa Clara, Calif.). Oxygen consumption rate (OCR) was measured with an Agilent Seahorse XFp Extracellular Flux analyzer using the Agilent XFp Cell Mito Stress Test Kit with oligomycin A (final concentration after injection 1.5 μM), carbonyl cyanide 4-(trifluoromethoxy)phenylhydrazone (FCCP at 2 μM), and […] rotenone/actimycin. After the assay, cells were lysed in 50 μl of 1× Laemmli sample buffer supplemented with HALT protease and phosphatase inhibitor cocktail (Thermo Fisher). Cell lysates were electrophoresed on SDS-PAGE gels and stained with CBB per above to estimate total protein per sample. Raw Seahorse measurements were normalized to total protein and analyzed using Agilent Wave software.

adult cardiomyocytes = test: IL6 incubation of isolated adult cardiomyocytes (microtubules, JPH2, t-tubules); type: cell-based; conditions: IL6 10 ng/mL
Protocol: To examine the direct effects of IL6 on the MT-JPH2 pathway, adult cardiomyocytes were incubated with IL6 (10 ng/mL) and then it was quantified how MT, JPH2, and t-tubules were affected. IL6 increased MT density as determined by quantitative immunofluorescence (16.0±0.9 vs 20.4±0.7 fluorescence intensity/μm^2, p<0.001) (FIGS. 4A and 4B). The altered MT structure disrupted JPH2 localization marked by loss of t-tubule enrichment (TT score: 65.6±2.5 vs 59.6±1.6, p=0.04) (FIGS. 4C and 4D). Finally, IL6 caused t-tubule remodeling with loss of t-tubule regularity (TT score: 59.9±1.9 vs 51.9±1.5, p=0.003) (FIGS. 4E and 4F).
Determination of how IL6 alters the microtubule-JPH2-t-tubule pathway in isolated cardiomyocytes: Right ventricular cardiomyocytes are isolated using the Langendorf retrograde perfusion protocol. Cardiomyocytes are incubated for 24, 48, and 72 hours with either phosphate buffered saline (PBS), IL6 (10 ng/mL), IL6 (10 ng/mL) plus the STAT3 inhibitor Stattic (2 μM), or IL6 (10 ng/mL) plus colchicine (10 μM). Then Western blot analysis and confocal microscopy is used to examine microtubule density, JPH2 protein levels and localization, and t-tubule morphology. JPH2 localization patterns and t-tubule remodeling are quantified using the TTPower plug-in in FIJI.

IL-6 receptor = biological target: T1, IL-6 receptor (Homo sapiens, UniProt P08887); conditions: PAH patients, vs control group; cited from earlier work
T1 construct: host or cells: PAH patients (clinical trial run by others)
T1 sequence (P08887 20-468): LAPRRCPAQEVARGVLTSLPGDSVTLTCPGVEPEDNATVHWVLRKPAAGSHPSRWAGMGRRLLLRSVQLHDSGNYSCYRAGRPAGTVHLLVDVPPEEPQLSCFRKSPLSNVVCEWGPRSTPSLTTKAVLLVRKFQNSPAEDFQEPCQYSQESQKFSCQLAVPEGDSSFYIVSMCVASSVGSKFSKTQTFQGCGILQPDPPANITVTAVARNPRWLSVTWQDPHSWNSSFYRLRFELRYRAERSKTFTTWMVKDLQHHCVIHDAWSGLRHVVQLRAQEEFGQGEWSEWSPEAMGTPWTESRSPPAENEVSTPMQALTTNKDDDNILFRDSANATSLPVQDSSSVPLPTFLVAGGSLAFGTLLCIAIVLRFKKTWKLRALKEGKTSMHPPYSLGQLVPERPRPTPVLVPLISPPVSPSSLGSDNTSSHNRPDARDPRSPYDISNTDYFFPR

[1] = therapy started one week after MCT

## C[C@]12CCC(OC=O)CC1CC[C@@H]1[C@@H]2CC[C@]2(C)C(C34C=CC(=O)OC3O4)CC3O[C@]312 (stereo partly shown) [20S,21-epoxy-resibufogenin-3-formate]
MCT rats; [1]
  mPAP: lowered mPAP
  pulmonary vascular remodeling: attenuated adverse pulmonary vascular remodeling

## CC(=O)O[C@H]1C(=O)[C@@]2(C)[C@H]([C@H](OC(=O)c3ccccc3)[C@]3(O)C[C@H](OC(=O)[C@H](O)[C@@H](NC(=O)c4ccccc4)c4ccccc4)C(C)=C1C3(C)C)[C@]1(OC(C)=O)CO[C@@H]1C[C@@H]2O [Paclitaxel, paclitaxel]
H9c2 cardiomyocytes
  ATP production: reduced
  coupling efficiency: reduced
  maximal respiration: reduced
  proton leak: enhanced
  spare capacity: reduced

## COc1cc2c(c(OC)c1OC)-c1ccc(OC)c(=O)cc1[C@@H](NC(C)=O)CC2 [colchicine]
MCT rats; RV, listed as Colchicine
  JPH2 expression: increases JPH2 expression
  t-tubule architecture: corrects t-tubule architecture
MCT rats; RV
  JPH2 expression: increases JPH2 levels; also recorded: increases JPH2 expression
  microtubule density: reduces microtubule density
  t-tubule architecture: combats pathological t-tubule remodeling
MCT rats
  RV function / contractility: augments RV function
  exercise capacity: enhances exercise capacity
MCT rats; listed as Colchicine
  RV function / contractility: improves RV function

## CCCc1nn(C)c2c(=O)[nH]c(-c3cc(S(=O)(=O)N4CCN(C)CC4)ccc3OCC)nc12 [sildenafil]
MCT rats; RV
  JPH2 expression: restores RV JPH2 expression
  t-tubule architecture: restores RV JPH2 expression and t-tubule architecture
MCT rats
  RV function / contractility: improves RV contractility

## IL6: inflammatory cytokine that binds to the cell membrane proteins IL6 receptor and GP130
Adult cardiomyocytes
  JPH2 t-tubule enrichment (TT score): 59.6±1.6
  MT density by quantitative immunofluorescence: 20.4±0.7 fluorescence intensity/μm^2
  t-tubule regularity (TT score): 51.9±1.5

## tocilizumab: a monoclonal antibody that antagonizes the IL-6 receptor
IL-6 receptor
  PVR: not different between the tocilizumab and control groups; also recorded: does not alter PVR
